The values that follow come from patent US20120264786A1, “USE OF THIAZOLIDINEDIONES FOR THE PARTIAL INHIBITION OF ANDROGEN BINDING TO AROMATASE” (priority 2008, published 2012).

Assay [1] relates to Human granulosa cells. The experiment in a line: Estrone production by cultured human granulosa cells with androstenedione as substrate (ELISA/RIA). The format is cell-based. Particulars: 3 μM androstenedione. As for the experimental part: (§1) Human granulosa cells were obtained during in vitro fertilization over the course of 18 months and were pooled from several patients at a time to ensure adequate cell number for the experiments. The diagnoses included male factor, tubal factor and uterine factor infertility, endometriosis and anovulation. […] La Jolla, Calif.). Estrone and estradiol concentrations in the tissue culture medium were measured using enzyme-linked immuno-sorbent assay (ELISA) (Alpco Diagnostics, Salem, N.H.) or radioimmunoassay (RIA) (Diagnostic Systems Laboratories, Webster, Tex.). […] The statistical interactions between the sets of data obtained with or without rosiglitazone or pioglitazone and with or without aromatase inhibitor I were examined. Pairwise Bonferroni-adjusted contrasts were used to determine statistical significance. […] Adjustments were made for initial inhibition of estradiol or estrone production induced by rosiglitazone or pioglitazone in the absence of insulin, with or without aromatase inhibitor I.

The subject of assay [2] is Human granulosa cells. The experiment in a line: Estradiol production by cultured human granulosa cells with testosterone as substrate (ELISA/RIA). Particulars: 3 μM testosterone; for reduction of the inhibitory effect on insulin-induced estradiol production: in the presence of aromatase inhibitor I and insulin, FIG. 2A vs FIG. 2C. The format is cell-based. As for the experimental part:
as §1

Assay [3] relates to aromatase enzyme (protein) expression. Briefly: Aromatase enzyme expression by immunoprecipitation and immunoblotting in granulosa cells. The assay is classed as cell-based, human. Particulars: androstenedione or testosterone as substrate; for effect on aromatase enzyme expression: 25 μM, absence or presence of insulin, vs control. As to the method: La Jolla, Calif.). […] Cambridge, Mass.) were added to 1 ml of cell lysate. […] The lysate was centrifuged at 6,000 rpm for 3 min and the supernatant was transferred into another micro-centrifuge tube. […] Metab. 92: 2232-2239, 2007, which is incorporated herein by reference. The mixture was incubated for 3-4 h at 4° C. After Protein A-agarose was added, the mixture was incubated again overnight at 4° C. The immunoprecipitate complexes were collected by centrifugation and washed. The samples were then resuspended in 2× Laemmli buffer (BioRad, Hercules, Calif.) supplemented with 1 mM DTT (Cleland's reagent, 1, 4-dithiothreitol, threo-1, 4-dimercapto-2, 3-butanediol, Roche Inc, Indianapolis, Ind.). […] The bands were detected by chemiluminescence (Pierce, Rockford, Ill.). For the analysis of the expression of aromatase, NIH Scion Imaging program was used to evaluate integrated band intensity.

The target in assay [4] is T1, aromatase enzyme (Homo sapiens, UniProt P11511).
T1 construct: The aromatase enzyme was immunoprecipitated as described above; endogenous in cells; host or cells: primary granulosa cells (human), lysate immunoprecipitated with anti-human aromatase antibody and Protein A-agarose
T1 sequence (P11511 1-503): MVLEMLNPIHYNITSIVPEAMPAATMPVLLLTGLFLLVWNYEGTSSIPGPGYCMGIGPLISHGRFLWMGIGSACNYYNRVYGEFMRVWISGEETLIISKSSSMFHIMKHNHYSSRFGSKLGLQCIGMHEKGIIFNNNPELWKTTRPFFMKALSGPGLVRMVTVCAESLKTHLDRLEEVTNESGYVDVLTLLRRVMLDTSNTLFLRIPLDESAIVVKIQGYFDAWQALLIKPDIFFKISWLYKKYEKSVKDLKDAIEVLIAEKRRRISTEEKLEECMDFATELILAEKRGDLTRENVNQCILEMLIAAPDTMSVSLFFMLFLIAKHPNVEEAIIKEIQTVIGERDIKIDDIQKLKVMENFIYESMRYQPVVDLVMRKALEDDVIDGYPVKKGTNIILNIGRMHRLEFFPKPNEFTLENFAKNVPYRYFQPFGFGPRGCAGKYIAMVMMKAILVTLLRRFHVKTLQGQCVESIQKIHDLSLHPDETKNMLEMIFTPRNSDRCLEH
The experiment in a line: 125I-androstenedione binding to immunoprecipitated aromatase enzyme. Particulars: for inhibition at 25 µM: 1 μM androstenedione, vs control. As to the method:
(§2) Rabbit polyclonal anti-human aromatase antibodies (1.4 μg) (Abcam, Inc. Cambridge, Mass.) were added to 1 ml of cell lysate. The lysate buffer contained 20 mM Tris-HCl (pH 7.4), 150 mM NaCl, 1 mM CaCl2, 1 mM MgCl2, 1 mM Na orthovanadate, 1% NP40, 1 mM AEBSF (4-2-aminoethyl-benzenesulfonyfluoride, hydrochloride), 0.8 μM aprotinin, 50 μM bestain, 15 μM E-64, 20 μM leupeptin, 10 μM pepstatin A, 1 mM phenylmethylsulfonyl fluoride and 10 μg/ml trypsin inhibitor. The lysate was centrifuged at 6,000 rpm for 3 min and the supernatant was transferred into another micro-centrifuge tube. […] Metab. 92: 2232-2239, 2007, which is incorporated herein by reference. The mixture was incubated for 3-4 h at 4° C. After Protein A-agarose was added, the mixture was incubated again overnight at 4° C. The immunoprecipitate complexes were collected by centrifugation and washed. The samples were then resuspended in 2× Laemmli buffer (BioRad, Hercules, Calif.) supplemented with 1 mM DTT (Cleland's reagent, 1, 4-dithiothreitol, threo-1, 4-dimercapto-2, 3-butanediol, Roche Inc, Indianapolis, Ind.). […] The bands were detected by chemiluminescence (Pierce, Rockford, Ill.). For the analysis of the expression of aromatase, NIH Scion Imaging program was used to evaluate integrated band intensity.
(§3) The aromatase enzyme was immunoprecipitated as described above. Purified aromatase bound to Protein A-agarose was added to 250 μl of solution containing the final concentration of 1 μM testosterone (2 μCi of [125I]/m1 testosterone with the specific radioactivity of 857 μCi/nmol) or androstenedione (3.5 μCi of [125I]/ml androstenedione with the specific radioactivity of 430 μCi/nmol), with insulin (0, 10, 10^2, 10^3 ng/ml) and with or without 25 μM rosiglitazone or pioglitazone. The mixture was incubated at room temperature for 30 min and then centrifuged at 6000 rpm for 3 min. The pellets were washed two times with 400 μl Dulbecco's phosphate saline. The bound testosterone or androstenedione, expressed as % of total testosterone or androstenedione, was measured in Wizard gamma counter.

The target in assay [5] is T1, aromatase enzyme. The experiment in a line: 125I-testosterone binding to immunoprecipitated aromatase enzyme. Particulars: for inhibition at 25 µM: 1 μM testosterone, vs control. As for the experimental part:
as §2, §3

In assay [6] the test system is aromatase mRNA. The experiment in a line: RT-PCR analysis of aromatase mRNA expression in granulosa cells. Particulars: androstenedione or testosterone as substrate. The assay is classed as cell-based, human.
The mark [7] stands for this setting: in the presence of aromatase inhibitor I.
[8] abbreviates: insulin, absence of aromatase inhibitor I, vs baseline.
[9] abbreviates: 25 μM TZD, presence of insulin, absence of aromatase inhibitor I, vs control without TZD.
[10] abbreviates: 25 μM, absence or presence of insulin, vs control.

As to “4-(imidazolylmethyl)-1-nitro-9H-9-xanthenone [aromatase inhibitor I]”, the “inhibition of estrone production” value in assay [1] (aromatase inhibitor 100 to 200 nM) was found to be 55%. Also, in assay [2] (setting [7]), the “inhibition of estradiol production” value amounted to 72% and the “insulin-induced stimulation of estradiol production” value was “completely abolished”.

Consider “insulin: insulin added to granulosa cell culture (0-10^4 ng/ml)”, for which the “stimulation of estrone production” value in assay [1] (setting [8]) stood at 114%. In addition, the “effect on aromatase enzyme (protein) expression” value in assay [3] (insulin alone) is “did not affect”. Besides, the “stimulation of estradiol production” value in assay [2] (setting [8]) is 124%. Besides, in assay [4] (insulin alone), the “effect on the binding of androstenedione to aromatase” value is on record as “no effect”. Also, the “effect on the binding of testosterone to aromatase” value in assay [5] (insulin alone) was “no effect”. In assay [6] (insulin alone), the “effect on aromatase mRNA” value is listed as “no effect”.

Consider `CN(CCOc1ccc(CC2SC(=O)NC2=O)cc1)c1ccccn1` (centres unmarked) [rosiglitazone], for which, in assay [1] (setting [9]), the “inhibition of estrone production” value was 22%. The “effect on aromatase enzyme expression” value in assay [3] is listed as “no significant effect”. The “inhibition of estradiol production” value in assay [2] (setting [9]) is 34%. For the same compound, the “reduction of the inhibitory effect on insulin-induced estradiol production” value in assay [2] is 62%. Also, the inhibition at 25 µM in assay [4] came to 20%; in assay [5], 38%. The “effect on aromatase mRNA” value in assay [6] (setting [10]) is on record as “no significant effect”.

For `CCc1ccc(CCOc2ccc(CC3SC(=O)NC3=O)cc2)nc1` (centres unmarked) [pioglitazone], in assay [1] (setting [9]), the “inhibition of estrone production” value came out at 22%. Also, the “effect on aromatase enzyme expression” value in assay [3] was “no significant effect”. In addition, the “inhibition of estradiol production” value in assay [2] (setting [9]) was 34%. In assay [2], the “reduction of the inhibitory effect on insulin-induced estradiol production” value is reported as 62%. The inhibition at 25 µM in assay [4] is 20%; in assay [5], 32%. Also, the “effect on aromatase mRNA” value in assay [6] (setting [10]) is recorded as “no significant effect”.
